ChEMBL document CHEMBL1155850, “Synthesis and biological evaluation of a focused library of beauveriolides” (Bioorg Med Chem Lett, 2008)

biological target: T1, Sterol O-acyltransferase 1 (Mus musculus) (UniProt Q61263); assay: Inhibition of ACAT in mouse liver microsomes at 20 uM; conditions: Microsome
T1 sequence (whole entry): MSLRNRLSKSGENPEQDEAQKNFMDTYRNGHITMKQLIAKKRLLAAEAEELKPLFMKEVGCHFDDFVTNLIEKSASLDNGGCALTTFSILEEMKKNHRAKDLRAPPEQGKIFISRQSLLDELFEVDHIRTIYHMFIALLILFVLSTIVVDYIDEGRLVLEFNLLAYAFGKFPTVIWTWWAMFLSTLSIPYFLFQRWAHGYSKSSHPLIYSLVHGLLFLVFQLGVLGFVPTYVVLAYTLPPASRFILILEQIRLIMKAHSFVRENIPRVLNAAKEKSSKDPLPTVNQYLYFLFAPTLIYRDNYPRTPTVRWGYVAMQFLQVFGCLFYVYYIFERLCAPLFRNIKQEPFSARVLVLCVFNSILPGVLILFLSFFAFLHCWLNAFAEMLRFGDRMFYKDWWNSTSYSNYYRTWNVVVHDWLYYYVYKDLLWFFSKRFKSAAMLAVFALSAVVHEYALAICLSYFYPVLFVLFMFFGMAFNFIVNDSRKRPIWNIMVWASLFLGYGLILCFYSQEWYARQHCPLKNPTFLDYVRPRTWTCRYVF

SMILES | inhibition [%]
CCCC[C@H](C)[C@@H]1CC(=O)N[C@@H](Cc2ccccc2)C(=O)N[C@@H](CC(N)=O)C(=O)N[C@H](Cc2ccccc2)C(=O)O1 | 11
CCCC[C@H](C)[C@@H]1CC(=O)N[C@@H](Cc2ccccc2)C(=O)N[C@@H](CO)C(=O)N[C@H](Cc2ccccc2)C(=O)O1 | 79
CCCC[C@H](C)[C@@H]1CC(=O)N[C@H](Cc2ccccc2)C(=O)N[C@H](C)C(=O)N[C@H]([C@H](C)CC)C(=O)O1 | 91
CCCC[C@H](C)[C@@H]1CC(=O)N[C@H](Cc2ccccc2)C(=O)N[C@@H](CC(N)=O)C(=O)N[C@H](CC(C)C)C(=O)O1 | 4
CCCC[C@H](C)[C@@H]1CC(=O)N[C@@H](C(c2ccccc2)c2ccccc2)C(=O)N[C@@H](CO)C(=O)N[C@H](CC(C)C)C(=O)O1 | 70
CCCC[C@H](C)[C@@H]1CC(=O)N[C@H](Cc2ccccc2)C(=O)N[C@@H](C)C(=O)N[C@H]([C@H](C)CC)C(=O)O1 | 70
CCCC[C@H](C)[C@@H]1CC(=O)N[C@H](Cc2ccccc2)C(=O)N[C@@H](C)C(=O)N[C@H](Cc2ccccc2)C(=O)O1 | 47
CCCC[C@H](C)[C@@H]1CC(=O)N[C@@H](C(c2ccccc2)c2ccccc2)C(=O)N[C@@H](CC(N)=O)C(=O)N[C@H](CC(C)C)C(=O)O1 | 98
CCCC[C@H](C)[C@@H]1CC(=O)N[C@@H](Cc2ccccc2)C(=O)N[C@@H](CO)C(=O)N[C@H](CC(C)C)C(=O)O1 | 93

Second part, the compound after the results:

inhibition [%] | SMILES
80 | CCCC[C@H](C)[C@@H]1CC(=O)N[C@@H](Cc2ccccc2)C(=O)N[C@@H](C)C(=O)N[C@H]([C@H](C)CC)C(=O)O1
96 | CCCC[C@H](C)[C@@H]1CC(=O)N[C@H](Cc2ccccc2)C(=O)N[C@H](C)C(=O)N[C@H](CC(C)C)C(=O)O1
97 | CCCC[C@H](C)[C@@H]1CC(=O)N[C@@H](C(c2ccccc2)c2ccccc2)C(=O)N[C@@H](CC(N)=O)C(=O)N[C@H](Cc2ccccc2)C(=O)O1
99 | CCCC[C@H](C)[C@@H]1CC(=O)N[C@H](Cc2ccccc2)C(=O)N[C@H](C)C(=O)N[C@H]([C@@H](C)CC)C(=O)O1
96 | CCCC[C@H](C)[C@@H]1CC(=O)N[C@@H](Cc2ccccc2)C(=O)N[C@H](C)C(=O)N[C@H]([C@H](C)CC)C(=O)O1
98 | CCCC[C@H](C)[C@@H]1CC(=O)N[C@@H](Cc2ccccc2)C(=O)N[C@H](C)C(=O)N[C@H](CC(C)C)C(=O)O1
95 | CCCC[C@H](C)[C@@H]1CC(=O)N[C@H](Cc2ccccc2)C(=O)N[C@@H](CO)C(=O)N[C@H](Cc2ccccc2)C(=O)O1
93 | CCCC[C@H](C)[C@@H]1CC(=O)N[C@@H](C(c2ccccc2)c2ccccc2)C(=O)N[C@H](C)C(=O)N[C@H](CC(C)C)C(=O)O1
95 | CCCC[C@H](C)[C@@H]1CC(=O)N[C@@H](C(c2ccccc2)c2ccccc2)C(=O)N[C@@H](C)C(=O)N[C@H]([C@@H](C)CC)C(=O)O1

system: Macrophage; assay: Inhibition of cholesterol ester synthesis in mouse macrophages assessed as lipid droplet accumulation; assay type: functional, cell-based; conditions: not given

SMILES | IC50 [nM]
CCCC[C@H](C)[C@@H]1CC(=O)N[C@@H](Cc2ccccc2)C(=O)N[C@@H](CC(N)=O)C(=O)N[C@H](Cc2ccccc2)C(=O)O1 | > 20000
CCCC[C@H](C)[C@@H]1CC(=O)N[C@@H](Cc2ccccc2)C(=O)N[C@@H](CO)C(=O)N[C@H](Cc2ccccc2)C(=O)O1 | 9300
CCCC[C@H](C)[C@@H]1CC(=O)N[C@H](Cc2ccccc2)C(=O)N[C@H](C)C(=O)N[C@H]([C@H](C)CC)C(=O)O1 | 2500
CCCC[C@H](C)[C@@H]1CC(=O)N[C@H](Cc2ccccc2)C(=O)N[C@@H](CC(N)=O)C(=O)N[C@H](CC(C)C)C(=O)O1 | > 20000
CCCC[C@H](C)[C@@H]1CC(=O)N[C@@H](C(c2ccccc2)c2ccccc2)C(=O)N[C@@H](CO)C(=O)N[C@H](CC(C)C)C(=O)O1 | > 20000
CCCC[C@H](C)[C@@H]1CC(=O)N[C@H](Cc2ccccc2)C(=O)N[C@@H](C)C(=O)N[C@H]([C@H](C)CC)C(=O)O1 | > 20000
CCCC[C@H](C)[C@@H]1CC(=O)N[C@H](Cc2ccccc2)C(=O)N[C@@H](CC(N)=O)C(=O)N[C@H](C[C@@H](C)CC)C(=O)O1 | > 20000
CCCC[C@H](C)[C@@H]1CC(=O)N[C@H](Cc2ccccc2)C(=O)N[C@@H](C)C(=O)N[C@H](Cc2ccccc2)C(=O)O1 | > 20000
CCCC[C@H](C)[C@@H]1CC(=O)N[C@@H](C(c2ccccc2)c2ccccc2)C(=O)N[C@@H](CC(N)=O)C(=O)N[C@H](CC(C)C)C(=O)O1 | 2000
CCCC[C@H](C)[C@@H]1CC(=O)N[C@@H](Cc2ccccc2)C(=O)N[C@@H](CO)C(=O)N[C@H](CC(C)C)C(=O)O1 | 12300

These reach a lower IC50. Values come first.

IC50 [nM] | SMILES
1700 | CCCC[C@H](C)[C@@H]1CC(=O)N[C@@H](Cc2ccccc2)C(=O)N[C@@H](C)C(=O)N[C@H]([C@H](C)CC)C(=O)O1
1000 | CCCC[C@H](C)[C@@H]1CC(=O)N[C@H](Cc2ccccc2)C(=O)N[C@H](C)C(=O)N[C@H](CC(C)C)C(=O)O1
900 | CCCC[C@H](C)[C@@H]1CC(=O)N[C@@H](C(c2ccccc2)c2ccccc2)C(=O)N[C@@H](CC(N)=O)C(=O)N[C@H](Cc2ccccc2)C(=O)O1
900 | CCCC[C@H](C)[C@@H]1CC(=O)N[C@H](Cc2ccccc2)C(=O)N[C@H](C)C(=O)N[C@H]([C@@H](C)CC)C(=O)O1
650 | CCCC[C@H](C)[C@@H]1CC(=O)N[C@@H](Cc2ccccc2)C(=O)N[C@H](C)C(=O)N[C@H]([C@H](C)CC)C(=O)O1
480 | CCCC[C@H](C)[C@@H]1CC(=O)N[C@@H](Cc2ccccc2)C(=O)N[C@H](C)C(=O)N[C@H](CC(C)C)C(=O)O1
110 | CCCC[C@H](C)[C@@H]1CC(=O)N[C@H](Cc2ccccc2)C(=O)N[C@@H](CO)C(=O)N[C@H](Cc2ccccc2)C(=O)O1
70 | CCCC[C@H](C)[C@@H]1CC(=O)N[C@@H](C(c2ccccc2)c2ccccc2)C(=O)N[C@H](C)C(=O)N[C@H](CC(C)C)C(=O)O1
40 | CCCC[C@H](C)[C@@H]1CC(=O)N[C@@H](C(c2ccccc2)c2ccccc2)C(=O)N[C@@H](C)C(=O)N[C@H]([C@@H](C)CC)C(=O)O1
